#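 1) Cells in 96-well plates. 2) Compound, 48 h, 5 concentrations. 3) Linear interpolation between surrounding doses. 4) Unreached endpoint = highest concentration. GI50 = concentration required for 50% inhibition of growth.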 The source made the active and inactive calls. Cut-off read from the data, not from the text of the source: active = GI50 up to about 1.1 µM and inactive = higher.
# Columns and labels:
# Assay in all cases: NCI tumour cell line growth inhibition, 48 h
# SF-295 = test system: SF-295
# OVCAR-8 = test system: OVCAR-8
# 786-0 = test system: 786-0
# NCI-H226 = test system: NCI-H226
# OVCAR-5 = test system: OVCAR-5
# HT-29 = test system: HT-29
# EKVX = test system: EKVX
# SK-OV-3 = test system: SK-OV-3
# MDA-MB-435 = test system: MDA-MB-435
# UACC-257 = test system: UACC-257
# SF-268 = test system: SF-268
# RXF 393 = test system: RXF 393
# CCRF-CEM = test system: CCRF-CEM
# HCT-116 = test system: HCT-116
# UO-31 = test system: UO-31
# HOP-62 = test system: HOP-62
# HCT-15 = test system: HCT-15
# NCI/ADR-RES = test system: NCI/ADR-RES
# LOX IMVI = test system: LOX IMVI
Structure (SMILES),GI50 (SF-295),GI50 (OVCAR-8),GI50 (786-0),GI50 (NCI-H226),GI50 (OVCAR-5),GI50 (HT-29),GI50 (EKVX),GI50 (SK-OV-3),GI50 (MDA-MB-435),GI50 (UACC-257),GI50 (SF-268),GI50 (RXF 393),GI50 (CCRF-CEM),GI50 (HCT-116),GI50 (UO-31),GI50 (HOP-62),GI50 (HCT-15),GI50 (NCI/ADR-RES),GI50 (LOX IMVI)
C[C@]12CC[C@H](O)CC1=CC[C@@H]1C2CC[C@]2(C)c3n[nH]nc3CC12 (stereo partly specified),> 100 µM (inactive),> 100 µM (inactive),> 100 µM (inactive),> 100 µM (inactive),> 100 µM (inactive),> 100 µM (inactive),52.7 µM (inactive),> 100 µM (inactive),36.2 µM (inactive),> 100 µM (inactive),> 100 µM (inactive),> 100 µM (inactive),> 100 µM (inactive),> 100 µM (inactive),> 100 µM (inactive),> 100 µM (inactive),–,–,–
CCCCNC(=S)N/N=C/c1cccc(C)n1,33.2 µM (inactive),33.5 µM (inactive),35.2 µM (inactive),27.8 µM (inactive),43.2 µM (inactive),> 10 µM (inactive),24.8 µM (inactive),59.8 µM (inactive),42.2 µM (inactive),37.8 µM (inactive),34 µM (inactive),–,6.9 µM (inactive),20.7 µM (inactive),29 µM (inactive),23.9 µM (inactive),47.6 µM,29 µM (inactive),34.9 µM (inactive)
NNc1nncc2[nH]cnc12,> 100 µM (inactive),> 100 µM (inactive),> 100 µM (inactive),> 100 µM (inactive),> 100 µM (inactive),> 100 µM (inactive),> 100 µM (inactive),–,> 100 µM (inactive),> 100 µM (inactive),> 100 µM (inactive),> 100 µM (inactive),> 100 µM (inactive),> 100 µM (inactive),> 100 µM (inactive),> 100 µM (inactive),> 100 µM,> 100 µM (inactive),–
c1cnc2c(c1)-n1cccc1C1(CCSC1)NN2 (stereo unspecified),> 100 µM (inactive),> 100 µM (inactive),> 100 µM (inactive),> 100 µM (inactive),> 100 µM (inactive),> 100 µM (inactive),> 100 µM (inactive),–,–,> 100 µM (inactive),> 100 µM (inactive),–,> 100 µM (inactive),> 100 µM (inactive),> 100 µM (inactive),> 100 µM (inactive),> 100 µM,–,> 100 µM (inactive)
C=CCC1(O)c2cccc(O)c2C(=O)c2c(O)cccc21,27.1 µM (inactive),32.2 µM (inactive),35.8 µM (inactive),45.7 µM (inactive),35.2 µM (inactive),22.6 µM (inactive),27.5 µM (inactive),–,9.51 µM (inactive),23 µM (inactive),32.7 µM (inactive),15.9 µM (inactive),–,23.1 µM (inactive),27.8 µM (inactive),80.2 µM (inactive),17.7 µM,18.9 µM (inactive),20.9 µM (inactive)
C=C1CN=C(Nc2ccc(F)cc2F)S1,> 100 µM (inactive),> 100 µM (inactive),> 100 µM (inactive),–,> 100 µM (inactive),> 100 µM (inactive),> 100 µM (inactive),> 100 µM (inactive),–,> 100 µM (inactive),> 100 µM (inactive),–,18.3 µM (inactive),> 100 µM (inactive),> 100 µM (inactive),> 100 µM (inactive),> 100 µM,> 100 µM (inactive),18.9 µM (inactive)
COc1ccc2c(c1)CC[C@@H]1C2CC[C@]2(C)C(=O)N(C)C(=O)CC12 (stereo partly specified),62.7 µM (inactive),> 100 µM (inactive),50.1 µM (inactive),> 100 µM (inactive),> 100 µM (inactive),> 100 µM (inactive),> 100 µM (inactive),> 100 µM (inactive),> 100 µM (inactive),> 100 µM (inactive),> 100 µM (inactive),38.1 µM (inactive),> 100 µM (inactive),> 100 µM (inactive),> 100 µM (inactive),38.9 µM (inactive),–,–,–
CC(C)c1ccc(/C=C2\CSCC3=C2N=C(S)NC3c2ccc(C(C)C)cc2)cc1 (stereo unspecified),75.9 µM (inactive),> 100 µM (inactive),> 100 µM (inactive),> 100 µM (inactive),> 100 µM (inactive),45.1 µM (inactive),61.8 µM (inactive),> 100 µM (inactive),–,34.6 µM (inactive),> 100 µM (inactive),30.9 µM (inactive),35.8 µM (inactive),44.9 µM (inactive),70.6 µM (inactive),> 100 µM (inactive),89.5 µM,> 100 µM (inactive),51.6 µM (inactive)
CCOc1ccc2nc(NC(=O)C(=O)C(c3cnc4ccccc4n3)[N+](=O)[O-])sc2c1 (stereo unspecified),> 100 µM (inactive),53.5 µM (inactive),> 100 µM (inactive),> 100 µM (inactive),> 100 µM (inactive),> 100 µM (inactive),96.8 µM (inactive),> 100 µM (inactive),–,> 100 µM (inactive),> 100 µM (inactive),> 100 µM (inactive),44.8 µM (inactive),> 100 µM (inactive),77.3 µM (inactive),> 100 µM (inactive),> 100 µM,> 100 µM (inactive),61 µM (inactive)
CCOC(=O)C1C(c2ccc3c(c2)OCO3)c2c(n[nH]c2O)CC1(C)O (stereo unspecified),> 100 µM (inactive),> 100 µM (inactive),> 100 µM (inactive),–,> 100 µM (inactive),> 100 µM (inactive),> 100 µM (inactive),–,> 100 µM (inactive),> 100 µM (inactive),> 100 µM (inactive),–,> 100 µM (inactive),> 100 µM (inactive),> 100 µM (inactive),> 100 µM (inactive),> 100 µM,> 100 µM (inactive),> 100 µM (inactive)
COc1ccc(C2(O)c3ccccc3C(=O)N(C)C2(O)c2ccc(OC)cc2)cc1 (stereo unspecified),32.9 µM (inactive),81.7 µM (inactive),81.5 µM (inactive),–,> 100 µM (inactive),28.5 µM (inactive),86.7 µM (inactive),> 100 µM (inactive),17.3 µM (inactive),61.9 µM (inactive),28.7 µM (inactive),> 100 µM (inactive),51.8 µM (inactive),37.8 µM (inactive),50.7 µM (inactive),70.8 µM (inactive),40.4 µM,24 µM (inactive),30.1 µM (inactive)
Cc1ccc(O)c(-c2cc(-c3ccccc3)nc(/N=C\c3ccccc3)n2)c1,36.1 µM (inactive),20.4 µM (inactive),32.5 µM (inactive),30.3 µM (inactive),> 100 µM (inactive),> 100 µM (inactive),47.8 µM (inactive),–,> 100 µM (inactive),> 100 µM (inactive),21.9 µM (inactive),–,18.6 µM (inactive),28.4 µM (inactive),2.94 µM (inactive),18.1 µM (inactive),11.6 µM,21.5 µM (inactive),21.8 µM (inactive)
O=C1C(O)=C(Cl)C(=O)c2c(O)ccc(O)c21,> 100 µM (inactive),> 100 µM (inactive),> 100 µM (inactive),–,> 100 µM (inactive),> 100 µM (inactive),> 100 µM (inactive),–,–,> 100 µM (inactive),> 100 µM (inactive),> 100 µM (inactive),> 100 µM (inactive),> 100 µM (inactive),> 100 µM (inactive),> 100 µM (inactive),> 100 µM,> 100 µM (inactive),–
O=C1c2ccccc2-c2c1c1ccccc1c(=O)n2Cc1ccccc1,93.1 µM (inactive),> 100 µM (inactive),28.6 µM (inactive),> 100 µM (inactive),> 100 µM (inactive),> 100 µM (inactive),> 100 µM (inactive),> 100 µM (inactive),> 100 µM (inactive),79.4 µM (inactive),58.5 µM (inactive),–,> 100 µM (inactive),> 100 µM (inactive),> 100 µM (inactive),38.6 µM (inactive),> 100 µM,> 100 µM (inactive),> 100 µM (inactive)
COc1ccc(/C(=N/N=c2\[nH]c3ccccc3n2Cc2ccccc2)C(=O)O)cc1,6.81 µM (inactive),21.8 µM (inactive),5.12 µM (inactive),20.2 µM (inactive),48.5 µM (inactive),22 µM (inactive),31.3 µM (inactive),13.7 µM (inactive),21.1 µM (inactive),29 µM (inactive),7.5 µM (inactive),–,3.97 µM (inactive),12.7 µM (inactive),25.8 µM (inactive),10.5 µM (inactive),12.6 µM,5.19 µM (inactive),6.89 µM (inactive)
C/C(CC(O)(/C=N/O)c1ccccc1)=N/O (stereo unspecified),> 100 µM (inactive),> 100 µM (inactive),> 100 µM (inactive),> 100 µM (inactive),> 100 µM (inactive),> 100 µM (inactive),> 100 µM (inactive),> 100 µM (inactive),> 100 µM (inactive),> 100 µM (inactive),> 100 µM (inactive),–,> 100 µM (inactive),> 100 µM (inactive),> 100 µM (inactive),> 100 µM (inactive),> 100 µM,99.8 µM (inactive),> 100 µM (inactive)
Cc1ccc2ccccc2c1CC1S(=O)(=O)OCCOS1(=O)=O,13.1 µM (inactive),14.5 µM (inactive),16.4 µM (inactive),–,11.9 µM (inactive),11.4 µM (inactive),16.2 µM (inactive),–,8.67 µM (inactive),18.2 µM (inactive),–,–,6.31 µM (inactive),13.1 µM (inactive),14.1 µM (inactive),12.6 µM (inactive),18.2 µM,19.1 µM (inactive),7.94 µM (inactive)

# Source: ChEMBL document CHEMBL1201862, “PubChem BioAssay data set” (2004)
